Test results published in US20240293401A1, “COMBINATION THERAPY WITH AN LXR AGONIST AND AN INHIBITOR COMPOUND” (Asteroid Therapeutics, priority 2023, published 2024).

What was measured:
[1] = system: glioblastoma, prostate cancer, and breast cancer cells; settings: cited from earlier work
[2] = system: β-cells; settings: cited from earlier work
[3] = system: Abca1; test: Mouse study: expression of the LXR target gene Abca1 in the brain after 5 days of daily dosing; format: in vivo, mice; settings: for Average ABCA1 FC vs. vehicle (brain): daily for 5 days, 4 hours post dose on day 5
Description: (§1) Mice were dosed daily with either: • a. the LXR agonist GW3965 orally at specified concentrations for 5-days, • b. the LXR inverse agonist SR9238 intraperitoneally at specified concentrations for 5-days, or • c. both drugs simultaneously at specified concentrations for 5-days.
(§2) Four hours after the final treatment on day 5, mice were euthanized and tissues were collected.

[4] = Mouse study: liver triglycerides after 5 days of daily dosing; format: in vivo, mice; settings: for Average liver trig: daily for 5 days, 4 hours post dose on day 5
Description: as §1, §2

[5] = SR9238 30 mg/kg intraperitoneally
[6] = SR9238 60 mg/kg intraperitoneally

For `CC(C)CC[C@@H](O)[C@@H](C)[C@H]1CC[C@H]2[C@@H]3CC=C4C[C@@H](O)CC[C@]4(C)[C@H]3CC[C@]12C` [22(R)-hydroxycholesterol], the “proliferation of glioblastoma, prostate cancer, and breast cancer cells (in words)” value [1] is given as “suppress the proliferation”.
For `CC(C)[C@@H](O)CC[C@@H](C)[C@H]1CC[C@H]2[C@@H]3CC=C4C[C@@H](O)CC[C@]4(C)[C@H]3CC[C@]12C` [24(S)-hydroxycholesterol], the “proliferation of glioblastoma, prostate cancer, and breast cancer cells (in words)” value [1] is listed as “suppress the proliferation”.
For `O=S(=O)(c1ccccc1)N(CC(F)(F)F)c1ccc(C(O)(C(F)(F)F)C(F)(F)F)cc1` [T0901317], the “effect on β-cells (in words)” value [2] is listed as “interfere with mitochondrial metabolism and metabolism-independent processes in β-cells”.
For `O=C(O)Cc1cccc(OCCCN(Cc2cccc(C(F)(F)F)c2Cl)CC(c2ccccc2)c2ccccc2)c1` [GW-3965], the “Average ABCA1 FC vs. vehicle (brain)” value ([3]; GW-3965 15 mg/kg orally) was 1.6, the “Average ABCA1 FC vs. vehicle (brain)” value ([3]; GW-3965 30 mg/kg orally) was 2.0 and the “Average ABCA1 FC vs. vehicle (brain)” value ([3]; GW-3965 60 mg/kg orally) was 2.8. For the same compound, the “expression of the LXR target gene Abca1 (in words)” value ([3]; GW-3965 alone, 5 days of daily treatment, brains of mice) was “increased expression”, the Average liver trig ([4]; GW-3965 15 mg/kg orally) was 16.3 mg/g and the Average liver trig ([4]; GW-3965 30 mg/kg orally) was 18.4 mg/g. The Average liver trig ([4]; GW-3965 60 mg/kg orally) was 29.2 mg/g, the “liver triglyceride concentrations (in words)” value ([4]; GW-3965 alone, 5 days of daily treatment) was “increased liver triglyceride concentrations” and the “effect on β-cells (in words)” value [2] was “interfere with mitochondrial metabolism and metabolism-independent processes in β-cells”.
With `CCOC(=O)c1ccc(CN(Cc2ccc(-c3cccc(S(C)(=O)=O)c3)cc2)S(=O)(=O)c2c(C)cc(C)cc2C)o1` [SR9238] the “Average ABCA1 FC vs. vehicle (brain)” value [3, 5] was 0.9, the “Average ABCA1 FC vs. vehicle (brain)” value [3, 6] was 1.2 and the Average liver trig [4, 5] was 7.78 mg/g. The Average liver trig [4, 6] was 8.4 mg/g.
